In data set [1] the test system is p53 protein. Kind of data set: Western blot analysis in 22RV1 cells, p53. It counts as cell-based, human. Particulars: 2 hr treatment. Here is the method:
(§1) 22RV1 cells were treated with Cpd. No. 4 and Cpd. D (MDM2 degraders) or with Cpd. A (MDM2 inhibitor) for 2 hr. MDM2 and p53 proteins were probed using specific antibodies. GAPDH was used as the loading control. […] No. 4 and Cpd. D reduce MDM2 protein and increase p53 protein level, and that Cpd. A increases MDM2 and p53 protein levels in 22RV1 cells.
Background: Immunoblotting shows a protein as a band on a membrane.

The test system of another data set is 22RV1 cells. Nature of the data set: Cell growth inhibition, 4-day proliferation assay (WST-8). It is filed as cell-based. The settings on record: Homo sapiens, 96 h; 22RV1, prostate carcinoma, 4 days. Here is the method: (§2) The effect of representative Compounds of the Disclosure on cell viability was determined in a 4-day proliferation assay. Cells were maintained in the appropriate culture medium with 10% FBS at 37° C. and an atmosphere of 5% CO2. Also, the effect of a MDM2 inhibitor (Cpd. A; see Compound Example No. 22 of U.S. Pat. No. 8,629,141) and a known MDM2 degrader (Cpd. D, see Cpd. No. 175 of WO 2017/0176957) on cell viability in various cell lines is also included in Table 5. Cpd. […] A and D. The structure of Cpd. A is:
(§3) Cells were seeded in 96-well flat bottom (Corning COSTAR, Corning, N.Y., cat #3595) at a density of 2,000-3,000 cells/well in 100 μL of culture medium. Compounds were serially diluted in the appropriate medium, and 100 μL of the diluted compounds were added to the appropriate wells of the cell plate. After the addition of compounds, the cells were incubated at 37° C. in an atmosphere of 5% CO2 for 4 days. Cell viability was determined using the WST (2-(2-methoxy-4-nitrophenyl)-3-(4-nitrophenyl)-5-(2,4-disulfophenyl)-2H-tetrazolium, monosodium salt) Cell Counting-8 Kit (Dojindo Molecular Technologies, Inc., Rockville, Md.) according to the manufacturers' instructions.
(§4) WST-8 reagent was added to each well at a final concentration of 10% (v/v), and then the plates were incubated at 37° C. for 1-2 hours for color development. The absorbance was measured at 450 nm using a SPECTRAmax PLUS plate reader (Molecular Devices, Sunnyvale, Calif.). The readings were normalized to the DMSO-treated cells and the half maximal inhibitory concentration (IC50) was calculated by nonlinear regression (four parameters sigmoid fitted with variable slope, least squares fit, and no constraint) analysis using the GraphPad Prism 5 software (GraphPad Software, La Jolla, Calif.).
Background: Tetrazolium dyes change colour on reduction, which living cells bring about.

The next data set relates to RS4;11 cells. Described as above. It is filed as cell-based. The settings on record: Homo sapiens, 96 h, 4 days. Here is the method:
as §2, §3, §4

Data set [2] concerns the target T1, MDM2 protein (Homo sapiens, UniProt Q00987). Kind of data set: Western blot analysis in 22RV1 cells, MDM2. It counts as cell-based. Also on record: endogenous in cells. The settings on record: 2 hr treatment. Here is the method:
as §1

The nature of data set [3]: Separate PK experiment, plasma concentrations after oral dose. It counts as in vivo. Particulars: mouse, 50 mg/kg, mice. From the text:
In a separate PK experiment, the plasma concentrations of Cpd.

For data set [4], the target named is T1, MDM2 protein. Kind of data set: Western blot analysis in RS4;11 cells, MDM2. Details: No. 4 and Cpd; No. 6 (MDM2 degraders); endogenous in cells; host or cells: RS4;11. It is filed as cell-based. The settings on record: 2 hr treatment. The method, then: (§5) RS4;11 cells were treated with Cpd. No. 4 and Cpd. No. 6 (MDM2 degraders) or with Cpd. B and Cpd. C (MDM2 inhibitors) for 2 hr. MDM2 and p53 proteins were probed using specific antibodies. GAPDH was used as the loading control. […] No. 4 and Cpd. No. 6 reduce MDM2 protein and increase p53 protein level, and that Cpd. B and Cpd. C increase MDM2 and p53 protein levels in RS4;11 cells. The structures of Cpd. B (see Compound Example No. 24 of U.S. Pat. No. 8,629,141) and Cpd.

Data set [5] has as its system p53 protein. Kind of data set: Western blot analysis in RS4;11 cells, p53. It counts as cell-based, human. The settings on record: 2 hr treatment. Here is the method: as §5
Setting [6] is: RS4;11 cells, WST-8, read-out: RS4, 11 Cells IC50.
Where [7] appears, read: read-out: Plasma concentration, Average / Mean.
[8] abbreviates: read-out: Plasma concentration, Mouse 1.
The mark [9] stands for this setting: read-out: Plasma concentration, Mouse 2.

Where two headings read alike, the source gives them in different places.

T1 sequence (Q00987 whole entry): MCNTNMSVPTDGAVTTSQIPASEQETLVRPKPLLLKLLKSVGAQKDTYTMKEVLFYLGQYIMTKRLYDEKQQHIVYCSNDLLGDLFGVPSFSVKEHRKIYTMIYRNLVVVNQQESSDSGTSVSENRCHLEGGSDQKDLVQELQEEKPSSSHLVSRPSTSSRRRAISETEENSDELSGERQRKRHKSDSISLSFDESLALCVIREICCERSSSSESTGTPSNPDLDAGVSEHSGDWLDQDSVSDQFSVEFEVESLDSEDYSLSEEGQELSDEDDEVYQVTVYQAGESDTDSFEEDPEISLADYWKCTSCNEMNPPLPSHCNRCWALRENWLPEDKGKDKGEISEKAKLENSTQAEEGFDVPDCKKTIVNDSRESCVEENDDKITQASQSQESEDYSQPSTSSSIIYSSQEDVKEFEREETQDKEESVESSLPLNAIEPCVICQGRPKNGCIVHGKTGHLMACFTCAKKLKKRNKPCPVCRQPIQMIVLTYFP

With `O=C(O)c1ccc(NC(=O)[C@@H]2NC3(CCCCC3)[C@@]3(C(=O)Nc4cc(Cl)ccc43)[C@H]2c2cccc(Cl)c2F)cc1` [Cpd. A, reference compound], the p53 protein level result in the data set with p53 protein [1] is on record as “increases”. In addition, the IC50 in the data set on 22RV1 cells is 1330 nM; with RS4;11 cells (RS4, 11, precursor cell lymphoblastic leukemia, read-out: IC50) it was 138 nM. In addition, the MDM2 protein level entry on MDM2 protein [2] is “increases”.
As to `O=C1CCC(N2Cc3c(C#CC4CCN(C(=O)C56CCC(NC(=O)[C@@H]7NC8(CCCCC8)[C@@]8(C(=O)Nc9cc(Cl)ccc98)[C@H]7c7cccc(F)c7F)(CC5)CC6)CC4)cccc3C2=O)C(=O)N1` (stereo partly drawn) [Cpd. No. 14, (3′R,4′S,5′R)-6″-chloro-4′-(2,3-difluorophenyl)-N-(4-(4-((2-(2,6-dioxopiperidin-3-yl)-1-oxoisoindolin-4-yl)ethynyl)piperidine-1-carbonyl)bicyclo[2.2.2]octan-1-yl)-2″-oxodispiro[cyclohexane-1,2′-pyrrolidine-3′,3″-indoline]-5′-carboxamide], in the data set with RS4;11 cells (setting [6]), the IC50 was found to be 11 nM. Moreover, the concentration at 1 h was 3.31 µg/mL in data set [3] (setting [7]), 4.06 µg/mL in data set [3] (setting [8]) and 2.55 µg/mL in data set [3] (setting [9]). For the same compound, the concentration at 3 h in data set [3] (setting [7]) amounted to 7.46 µg/mL; in data set [3] (setting [8]), 6.88 µg/mL; in data set [3] (setting [9]) it was 8.05 µg/mL. Moreover, the concentration at 6 h in data set [3] (setting [7]) was 8.23 µg/mL; in data set [3] (setting [8]), 7.66 µg/mL; in data set [3] (setting [9]) it was 8.81 µg/mL.
As for `O=C(NC12CCC(C(=O)O)(CC1)CC2)[C@@H]1NC2(CCCCC2)[C@@]2(C(=O)Nc3cc(Cl)ccc32)[C@H]1c1cccc(Cl)c1F` [Cpd. C, reference compound], the MDM2 protein level result on MDM2 protein [4] is on record as “increase”. Further, the p53 protein level entry in the data set on p53 protein [5] is “increase”.
Consider `O=C1CCC(N2Cc3c(C#CC4CCN(C(=O)C56CC(NC(=O)[C@@H]7NC8(CCCCC8)[C@@]8(C(=O)Nc9cc(Cl)ccc98)[C@H]7c7cccc(Cl)c7F)(C5)C6)CC4)cccc3C2=O)C(=O)N1` (stereo partly drawn) [Cpd. No. 11, (3′R,4′S,5′R)-6″-chloro-4′-(3-chloro-2-fluorophenyl)-N-(3-(4-((2-(2,6-dioxopiperidin-3-yl)-1-oxoisoindolin-4-yl)ethynyl)piperidine-1-carbonyl)bicyclo[1.1.1]pentan-1-yl)-2″-oxodispiro[cyclohexane-1,2′-pyrrolidine-3′,3″-indoline]-5′-carboxamide], for which the IC50 with RS4;11 cells (setting [6]) amounted to 0.3 nM.
Still for that read-out and setting: for `CN1[C@@H](C(=O)N(C)[C@H]2CC[C@H](C(=O)N3CCC(C#Cc4cccc5c4CN(C4CCC(=O)NC4=O)C5=O)CC3)CC2)[C@H](c2cccc(Cl)c2F)[C@]2(C(=O)Nc3cc(Cl)ccc32)C12CCCCC2` (stereo partly drawn) [Cpd. No. 16, (3′R,4′S,5′R)-6″-chloro-4′-(3-chloro-2-fluorophenyl)-N-((1r,4R)-4-(4-((2-(2,6-dioxopiperidin-3-yl)-1-oxoisoindolin-4-yl)ethynyl)piperidine-1-carbonyl)cyclohexyl)-N,1′-dimethyl-2″-oxodispiro[cyclohexane-1,2′-pyrrolidine-3′,3″-indoline]-5′-carboxamide] the value was over 100 nM; for `CC1(C)CCC2(CC1)N[C@@H](C(=O)NC13CCC(C(=O)N4CCC(C#Cc5cccc6c5CN(C5CCC(=O)NC5=O)C6=O)CC4)(CC1)CC3)[C@H](c1cccc(Cl)c1F)[C@]21C(=O)Nc2cc(Cl)ccc21` (stereo partly drawn) [Cpd. No. 13, (3′R,4′S,5′R)-6″-chloro-4′-(3-chloro-2-fluorophenyl)-N-(4-(4-((2-(2,6-dioxopiperidin-3-yl)-1-oxoisoindolin-4-yl)ethynyl)piperidine-1-carbonyl)bicyclo[2.2.2]octan-1-yl)-4,4-dimethyl-2″-oxodispiro[cyclohexane-1,2′-pyrrolidine-3′,3″-indoline]-5′-], 6 nM.
As to `CC1(C)CCC2(CC1)N[C@@H](C(=O)NC1CCN(CC(=O)NCCCC#Cc3cccc4c3CN(C3CCC(=O)NC3=O)C4=O)CC1)[C@H](c1cccc(Cl)c1F)[C@]21C(=O)Nc2cc(Cl)ccc21` (stereo partly drawn) [Cpd. No. 8, (3′R,4′S,5′R)-6″-chloro-4′-(3-chloro-2-fluorophenyl)-N-(1-(2-((5-(2-(2,6-dioxopiperidin-3-yl)-1-oxoisoindolin-4-yl)pent-4-yn-1-yl)amino)-2-oxoethyl)piperidin-4-yl)-4,4-dimethyl-2″-oxodispiro[cyclohexane-1,2′-pyrrolidine-3′,3″-indoline]-5′-carboxamide], in the data set on RS4;11 cells (setting [6]), the IC50 was 4.5 nM.
Turning to `O=C(N[C@H]1CC[C@H](C(=O)O)CC1)[C@@H]1NC2(CCCCC2)[C@@]2(C(=O)Nc3cc(Cl)ccc32)[C@H]1c1cccc(Cl)c1F` [Cpd. B, reference compound], the MDM2 protein level entry on MDM2 protein [4] is “increase”. Besides, the p53 protein level entry in the data set with p53 protein [5] is “increase”.
Turning to `O=C1CCC(N2Cc3c(C#CC4CN(C(=O)C56CCC(NC(=O)[C@@H]7NC8(CCCCC8)[C@@]8(C(=O)Nc9cc(Cl)ccc98)[C@H]7c7cccc(Cl)c7F)(CC5)CC6)C4)cccc3C2=O)C(=O)N1` (stereo partly drawn) [Cpd. No. 33, (3′R,4′S,5′R)-6″-chloro-4′-(3-chloro-2-fluorophenyl)-N-(4-(3-((2-(2,6-dioxopiperidin-3-yl)-1-oxoisoindolin-4-yl)ethynyl)azetidine-1-carbonyl)bicyclo[2.2.2]octan-1-yl)-2″-oxodispiro [cyclohexane-1,2′-pyrrolidine-3′,3″-indoline]-5′-carboxamide], the IC50 with RS4;11 cells (setting [6]) was determined as 1.2 nM.

The record behind these values is patent US20210309666A1, “SMALL MOLECULE MDM2 PROTEIN DEGRADERS” (THE REGENTS OF THE UNIVERSITY OF MICHIGAN, priority 2018, published 2021).
